Data taken from patent US8524659B2, “RNA virus-derived peptides with modified side chains” (National Taiwan University, priority 2011, dated 2013).

Columns and labels:
[1] = tested on: Jurkat cells; experiment: Cellular uptake assay by flow cytometry; assay type: cell-based; conditions: for Mean fluorescence intensity: Jurkat cells
Method: All apparatuses were sterilized by autoclave sterilizer, and the experimental surfaces were wiped with 70% ethanol. All operations were performed in a laminar flow hood. The number of cells was determined by a hemacytometer. There were 9 squares with 1.0 mm^2 area and 0.1 mm depth in the hemacytometer. The number of cells in the four corner squares was counted and averaged. The average was multiplied by 10^4 to obtain the number of cells in a 1 mL suspension. The cellular uptake experiments were performed using 8×10^5 cells. […] The cells were then washed with PBS (2 g/L KCl, 2 g/L KH2PO4, 80 g/L NaCl, 11.5 g/L Na2PO4) (2×400 μL) to remove the fetal bovine serum which might interfere with the proteolytic activity of trypsin. The cells were then incubated with 0.05% trypsin/EDTA in PBS for 5 minutes to remove the peptides which adhered to the cell surface rather than entry to the cell. The cells were washed with PBS (2×400 μL). The cells were then resuspended in 500λ PBS and transferred into the flow tube. The cells were terminated by adding Triton-X 100 to give the dead control group. Propidium iodide (PI) was added to all samples to stain the dead cells but should not stain the live cells. Fluorescence analysis for the Jurkat cells was performed with a flow cytometer (FACScan, Becton Dickinson Bioscience). The voltage of the photomultiplier tube for forward scatter, side scatter and propidium iodide was set to 270, 470, and 350, respectively. Live cells containing appropriate forward scatter and side scatter values were selected and gated as the P1 region for normal and live cells in the live control group. The minimum propidium iodide fluorescence intensity for the dead cells treated with propidium iodide in the P1 region was set as the threshold value for dead cells. In other words, cells with propidium iodide fluorescence below the threshold value would be deemed live cells. The fluorescence of 6-carboxyfluorescein was considered when the cell morphology was in the P1 region and the propidium iodide fluorescence intensity was lower than the threshold value. The 6-carboxyfluorescein fluorescence intensity was acquired for 10,000 events at room temperature. The data presented are the mean fluorescence intensity for the 10,000 cells. Each experiment was independently repeated at least three times.
Cellular uptake experiments were performed on Jurkat cells, because these cells belonged to a CD4+ helper T cell cancer cell line which was the target of HIV. Jurkat cells were incubated separately with various concentration (7, 30, 60, 120 μM) of Flu-XaaTat for 15 minutes at 37° C. in the presence of fetal bovine serum, and then treated with trypsin to remove cell-surface bound peptide.

[2] = tested on: Jurkat cells; experiment: Fluorescence microscope of live Jurkat cells; assay type: cell-based; conditions: 37° C.; for Cellular uptake seen in fluorescence microscopy images: 7 μM peptide, 15 minutes, fetal bovine serum, trypsin 5 minutes, FIG. 1; for Cellular uptake seen in fluorescence microscope images: 30 μM peptide, 5% CO2, 15 minutes, trypsinized 10 minutes, FIG. 7
Method: […] After incubation, the suspension was centrifuged at 2200 rpm. The cells were washed with phosphate buffered saline (137 mM NaCl, 2.7 mM KCl, 10 mM sodium phosphate dibasic, 2 mM potassium phosphate monobasic, pH 7.4) twice to remove extracellular peptide. […] Finally, cells were resuspended in 500 μL PBS containing 1 μg/mL propidium iodide. The cells were then examined by a fluorescence microscope (Olympus IX71) (492/517 nm; excitation/observation).

[3] = target: HIV TAR RNA; experiment: Gel shift assay (EMSA) with fluorescein-labeled TAR RNA in the presence of poly(dI-dC); assay type: binding; conditions: in the presence of 10 μg/mL poly(dI-dC), FIG. 9; read-out: KD of peptide and TAR-RNA by gel shift assay
Method: The fluorescein-labeled TAR RNA (F-TAR-RNA) was purchased from Sigma. F-TAR-RNA was dissolved in diethyl pyrocarbonate treated H2O to give a 50 μM solution. Binding assays were performed at room temperature. Peptide and RNA were incubated in pH 7.4 buffer (10 μL) containing Tris-HCl (50 mM), KCl (50 mM), poly-dIdC (10 μg/mL), 2% glycerol, and Triton X-100 (0.05%). The F-TAR-RNA concentration was 100 nM. The samples were analyzed by loading into 12% native polyacrylamide gels in […] and electrophoresis was performed with 140 V at room temperature. Dried gels were scanned by the Typhoon TRIO+ Variable Mode Imager. Bands corresponding to the free and bound RNA were quantified using ImageQuant software. The apparent dissociation constants were globally derived from the quantified data assuming a 1:1 binding stoichiometry.

Substance	Uptake into cells compared to Flu-ArgTat and Flu-AghTat ([1]; 7 μM peptide, 15 minutes, 37° C., fetal bovine serum, FIG. 2A)	Cellular uptake seen in fluorescence microscopy images [2]	Mean fluorescence intensity ([1]; 30 μM peptide)	Mean fluorescence intensity ([1]; 60 μM peptide)	Mean fluorescence intensity ([1]; 90 μM peptide)	Mean fluorescence intensity ([1]; 120 μM peptide)	Cellular uptake seen in fluorescence microscope images [2]	Kd [3]	Cellular uptake compared to Flu-ArgTat ([1]; concentrations higher than 7 μM, FIG. 2B)
6-carboxyfluorescein-βAla-Tyr-Gly-Agb-Lys-Lys-Agb-Agb-Gln-Agb-Agb-Agb-NH2 [Flu-AgbTat]	3 times	Obvious cellular uptake	–	–	–	–	–	–	–
6CF-βAla-Tyr-Gly-Arg-Lys-Lys-Arg-Cit-Gln-Arg-Arg-Arg-NH2 [6CF-Tat-Cit53]	–	–	429 ± 19 a.u.	3417 ± 288 a.u.	6499 ± 109 a.u.	10861 ± 1096 a.u.	significant cellular uptake	–	–
6CF-βAla-Tyr-Gly-Arg-Lys-Lys-Arg-Arg-Gln-Cit-Arg-Arg-NH2 [6CF-Tat-Cit55]	–	–	793 ± 267 a.u.	5750 ± 134 a.u.	9090 ± 707 a.u.	10152 ± 787 a.u.	significant cellular uptake	–	–
Ac-Tyr-Gly-Arg-Lys-Lys-Arg-Arg-Gln-Arg-Arg-Agp-NH2 [Ac-Agp57-Tat-NH2]	–	–	–	–	–	–	–	0.056 ± 0.012 µM	–
6-carboxyfluorescein-βAla-Tyr-Gly-Agh-Lys-Lys-Agh-Agh-Gln-Agh-Agh-Agh-NH2 [Flu-AghTat]	–	Obvious cellular uptake	–	–	–	–	–	–	more cellular uptake
6CF-βAla-Tyr-Gly-Arg-Lys-Lys-Cit-Arg-Gln-Arg-Arg-Arg-NH2 [6CF-Tat-Cit52]	–	–	1221 ± 116 a.u.	5332 ± 612 a.u.	10040 ± 726 a.u.	12378 ± 972 a.u.	significant cellular uptake	–	–
6CF-βAla-Tyr-Gly-Arg-Lys-Lys-Arg-Arg-Gln-Arg-Cit-Arg-NH2 [6CF-Tat-Cit56]	–	–	429 ± 95 a.u.	2305 ± 249 a.u.	6094 ± 792 a.u.	11617 ± 1339 a.u.	significant cellular uptake	–	–
6-carboxyfluorescein-βAla-Tyr-Gly-Arg-Lys-Lys-Arg-Arg-Gln-Arg-Arg-Arg-NH2 [Flu-ArgTat, reference compound]	–	Obvious cellular uptake	2170 ± 1692 a.u.	5258 ± 2006 a.u.	7042 ± 1475 a.u.	8628 ± 3585 a.u.	–	–	–
6CF-βAla-Tyr-Gly-Cit-Lys-Lys-Arg-Arg-Gln-Arg-Arg-Arg-NH2 [6CF-Tat-Cit49]	–	–	1791 ± 555 a.u.	6452 ± 740 a.u.	13284 ± 1441 a.u.	15784 ± 1567 a.u.	significant cellular uptake	–	–
6CF-βAla-Tyr-Gly-Arg-Lys-Lys-Arg-Arg-Gln-Arg-Arg-Cit-NH2 [6CF-Tat-Cit57]	–	–	465 ± 72 a.u.	1696 ± 167 a.u.	4031 ± 377 a.u.	4964 ± 811 a.u.	significant cellular uptake	–	–
